Counter-ions that a name gives are not always drawn.

This assay deals with T1, histamine H2 -receptors (Rattus norvegicus, UniProt P25102).
T1 construct: from tissue; host or cells: stomach of living anaesthetized Sprague-Dawley rats (in vivo perfusion)
The assay is described as follows: Blocking activity of histamine H2-receptors: inhibition of histamine-induced perfusate pH decrease (gastric acid secretion) in perfused stomach of anaesthetized rats. The assay is classed as in vivo, Sprague-Dawley albino male rats. To be noted: for ED50: rat, iv, anaesthetized rats, perfused stomach, histamine 0.325 μmols/kg/min, test drugs via femoral veins, read-out: ED50 (inhibition rate of maximal pH decrease in relation to initial pH); for times more active than Cimetidine, according to ED50 values: ratio of ED50 values to Cimetidine (Table 1). On the procedure:
The blocking activity of histamine H2 -receptors was tested in Sprague-Dawley albino male rats weighing 350-450 g. Animals subject to 18-hour fasting were anaesthetized with urethane (1.5 g/kg i.p.), after which a longitudinal incision was performed on the abdominal wall, and pylorus and esophagus were cannulated for subject perfusion. In addition, femoral veins were cannulated for administration of test drugs and histamine solution.
The animals' stomachs were perfused with 1/8000N NaOH diluted solution at a rate of 2 ml/min. The perfusion liquid was then circulated through a 3 ml-volume chamber provided with a pH meter electrode. After calibrating the pH, histamine was perfused at 0.325 μmols/kg/min. The histamine perfusion caused a decrease of the perfusion liquid pH, which was inhibited by the compounds of the present invention.

T1 sequence (P25102 whole entry, the tested form may be a part): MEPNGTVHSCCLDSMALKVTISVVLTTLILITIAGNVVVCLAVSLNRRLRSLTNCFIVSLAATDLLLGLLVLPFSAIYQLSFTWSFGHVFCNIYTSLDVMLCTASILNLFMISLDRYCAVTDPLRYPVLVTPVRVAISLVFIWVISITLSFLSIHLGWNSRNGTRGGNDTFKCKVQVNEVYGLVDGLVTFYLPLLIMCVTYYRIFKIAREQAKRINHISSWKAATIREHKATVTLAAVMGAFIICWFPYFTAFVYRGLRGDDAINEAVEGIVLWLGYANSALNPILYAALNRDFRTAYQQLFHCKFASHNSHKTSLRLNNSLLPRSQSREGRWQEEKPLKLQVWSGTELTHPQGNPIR

For the compound `N#CN=CNCCSCc1csc(NC(=N)N)n1` [Example 3, N-cyano-N'-[2-[[[2-[(aminoiminomethyl)amino]-4-thiazolyl]methyl]thio]ethyl]formamidine maleate acid], the ED50 is 2.17 µmol/kg and the “times more active than Cimetidine, according to ED50 values” was 2.6 times.

Turning to `CN/C(=N/CCSCc1nc[nH]c1C)NC#N` [Cimetidine, reference compound], the ED50 is 5.6 µmol/kg.

Turning to `N#CN=CNCCCOc1cccc(CN2CCCCC2)c1` [Example 4, N-cyano-N'-[3-[3-(1-piperidinylmethyl)phenoxy]propyl]formamidine hydrochloride], the ED50 was 3.2 µmol/kg and the “times more active than Cimetidine, according to ED50 values” is on record as 1.8 times.

The record behind these values is patent US4600780A, “N-cyano-formamidines” (Ferrer International, S.A., priority 1983, dated 1986).
